Results on six compounds are retold here after patent publication EP0329361A2, “2-pyranone derivatives and process for production thereof” (priority 1988, dated 1989).

One experiment deals with Botrytis cinerea RR-4. Description: Disease suppressive activity against gray mold, cucumber seedling cotyledon test. Format: in vivo. Particulars: strain RR-4 (multi-resistant strain), incubated at 20°C for three days. The method, then: (§1) The disease suppressive activity of the present compounds I-a, I-c (and I-b), I-d (and I-e), I-f, I-g, I-h, and I-i against the gray mold was tested by the following procedure. A solution of the present compound having a predetermined concentration was coated,with an absorbent cotton block, on the cotyledon of a cucumber seedling seven days after seeding. One day after the coating, an agar disk having a diameter of 5 mm containing Botrytis cinerea was put on the coated cotyledon, the plant was incubated at 20°C for three days, and the disease suppresive activity of the tested compound was observed. In Table 4, Botrytis cinerea RR-4 is a strain resistant to antimicrobial agents (multi-resistant strain), isolated from a diseased seedling of egg plant, and Botrytis cinerea S-9 is a strain sensitive to antimicrobial agents, isolated from a diseased petal of orange blossom. Note, the extent of the disease suppressive effect is expressed by symbols + (no lesion), ± (lesion having a diameter of less than 10 mm formed), and - (lesion having a diameter of not less than 10 mm formed).

The test system of the next experiment is Botrytis cinerea S-9. Described as above. Format: in vivo. Conditions: strain S-9 (sensitive to antimicrobial agents), incubated at 20°C for three days. Here is the method:
as §1

Setting [1] is: 32 ppm coated on cucumber seedling cotyledon.
Where [2] appears, read: 125 ppm coated on cucumber seedling cotyledon.
Setting [3] is: 8 ppm coated on cucumber seedling cotyledon.

Structures are written as SMILES.

Take `CCC1C=CC(=O)OC1C=CC(O)(CCN)C(CC(O)C=CC=CC1CCCCC1)OP(=O)(O)O` (stereo not drawn) [I-a]: the “Disease suppressive effect to Botrytis cinerea” value (shortened to “Disease suppressive effect”) in the experiment with Botrytis cinerea RR-4 (setting [1]) is “- (- (lesion having a diameter of not less than 10 mm formed))”; with Botrytis cinerea RR-4 (setting [2]), “+”; in the experiment on Botrytis cinerea S-9 (setting [1]), “- (- (lesion having a diameter of not less than 10 mm formed))”; with Botrytis cinerea S-9 (setting [2]), “+”.
As to `CCC1C=CC(=O)OC1C=CC(O)(CCN)C(CC(O)C=CC=CC1CCCC(OC(=O)C2CCCCC2)C1)OP(=O)(O)O` (stereo not drawn) [I-f], the “Disease suppressive effect” value in the experiment on Botrytis cinerea RR-4 (setting [3]), in the experiment on Botrytis cinerea RR-4 (setting [1]), in the experiment on Botrytis cinerea S-9 (setting [3]) and with Botrytis cinerea S-9 (setting [1]) was “+” each time.
Take `CCC(C)CCC(=O)OC1CCCC(C=CC=CC(O)CC(OP(=O)(O)O)C(O)(C=CC2OC(=O)C=CC2CC)CCN)C1` (stereo not drawn) [I-g]: the “Disease suppressive effect” value in the experiment on Botrytis cinerea RR-4 (setting [3]), in the experiment on Botrytis cinerea RR-4 (setting [1]), in the experiment with Botrytis cinerea S-9 (setting [3]) and with Botrytis cinerea S-9 (setting [1]) was “+” each time.
With `CCC1C=CC(=O)OC1C=CC(O)(CCN)C(CC(O)C=CC=CC1CCCC(OC(=O)CCCCC(C)C)C1)OP(=O)(O)O` (stereo not drawn) [I-h], the “Disease suppressive effect” value is “- (- (lesion having a diameter of not less than 10 mm formed))” in the experiment on Botrytis cinerea RR-4 (setting [3]), “+” in the experiment on Botrytis cinerea RR-4 (setting [1]), “- (- (lesion having a diameter of not less than 10 mm formed))” in the experiment with Botrytis cinerea S-9 (setting [3]) and “+” with Botrytis cinerea S-9 (setting [1]).
As to `CCCCCCCC(=O)OC1CCCC(C=CC=CC(O)CC(OP(=O)(O)O)C(O)(C=CC2OC(=O)C=CC2CC)CCN)C1` (stereo not drawn) [I-i], the “Disease suppressive effect” value is listed as “- (- (lesion having a diameter of not less than 10 mm formed))” with Botrytis cinerea RR-4 (setting [3]), “+” in the experiment with Botrytis cinerea RR-4 (setting [1]), “- (- (lesion having a diameter of not less than 10 mm formed))” in the experiment on Botrytis cinerea S-9 (setting [3]) and “+” with Botrytis cinerea S-9 (setting [1]).
Regarding `CC12CC1(C)C(=O)N(c1cc(Cl)cc(Cl)c1)C2=O` (stereo not drawn) [Procymidone, reference compound], the “Disease suppressive effect” value in the experiment on Botrytis cinerea RR-4 (setting [1]) is on record as “- (- (lesion having a diameter of not less than 10 mm formed))”; in the experiment with Botrytis cinerea RR-4 (setting [2]), “- (- (lesion having a diameter of not less than 10 mm formed))”; with Botrytis cinerea S-9 (setting [1]), “- (- (lesion having a diameter of not less than 10 mm formed))”; in the experiment with Botrytis cinerea S-9 (setting [2]), “+”.
